Patent US4123552A, “Compositions for preserving crops and animal feedstuffs” (Chevron Research Company, priority 1975, dated 1978)
≈ marks a conversion by molar mass, not a printed value.

Key:
All Species = assay: Control of seed- and soil-borne pathogens during storage of corn seeds (Table IV), all species; type: cell-based, Rhizopus, Penicillium, Fusarium; details: relative to untreated check
Protocol: A variety of bis-esters was tested for the control of seed- and soil-borne pathogens during storage of corn seeds (Zea mays) by the following procedure.
(§1) A small amount of acetone was added to the bis-ester to make specific volume, plus a small portion of emulsifier making it into a slurry. This preparation was diluted with water to the desired concentration. Solution was then evenly distributed on the wall of a glass jar. High moisture feedcorn with natural infection was stored frozen after harvest until used for this test. The corn seeds were rolled in the jar until they were coated and the solution was completely absorbed on them.
(§2) Following the treatment, the corn seeds were plated on Potato Dextrose Agar plates. For comparison, untreated corn seeds were also plated. Propionic acid was also tested for comparison.
The percentage control of all species was based on the total sum average of mycelial growth in millimeters of all species in the treated seeds relative to the untreated check. The fast growing Rhizopus was evaluated 7 days after treatment, the other fungi after 14 days.

Rhizopus sp. = assay: Concentration for 90% control of pathogen on corn seeds (Table V), Rhizopus sp.; type: cell-based; details: 5 days after treatment
Protocol: as §1, §2
(§3) A variety of bis-esters was tested for the control of seed- and soil-borne pathogens during the storage of corn seeds (Zea mays) by the procedure of Example 11. For comparison, propionic acid was also tested.
(§4) Control of each pathogen was determined by mycelial growth in millimeters in the treated seeds relative to untreated seeds. Mycelial growth of Rhizopus species and Fusarium species was evaluated 5 days after treatment. Mycelial growth in Aspergillus niger was evaluated 14 days after treatment.
(§5) The bis-ester tested and the concentration of active ingredient in ounces per 100 lbs. of corn seeds for 90 percent control of each pathogen species are tabulated in Table V.

Aspergillus niger [1] = assay: Concentration for 90% control of pathogen on corn seeds (Table V), Aspergillus niger; type: cell-based; details: 14 days after treatment; for Conc. for 90% Control, Aspergillus niger: corn seeds
Protocol: as §1, §2, §3, §4, §5

Fusarium sp. = assay: Concentration for 90% control of pathogen on corn seeds (Table V), Fusarium sp.; type: cell-based; details: 5 days after treatment
Protocol: as §1, §2, §3, §4, §5

[2] = Solubility of insecticides in methylene bispropionate; type: physicochemical; details: solvent methylene bispropionate
Protocol: Methylene bispropionate was tested as a solvent for various insecticides. […] O,S-dimethylN-acetyl phosphoramidothioate was soluble in methylene bispropionate to the extent of 5 percent by weight. Chlordane was soluble in methylene bispropionate to the extent of at least 75 percent by weight.

Aspergillus niger [3] = assay: Antimicrobial activity of MBP on nutrient agar, Aspergillus niger; type: cell-based; details: read-out: Germistatic Concentration of MBP
Protocol: (§6) Microbiological tests were conducted to determine the antimicrobial activity of methylene bispropionate (MBP). The minimum concentration of MBP, capable of inhibiting the growth of five species of bacteria, two species of mold and one species of yeast was determined. Petri plates containing nutrient agar and various concentrations of MBP were inoculated with each of the test species. The identification of these organisms and the effective concentration of MBP inhibiting growth are shown below: […]

Streptococcus pyogenes = assay: Antimicrobial activity of MBP on nutrient agar, Streptococcus pyogenes; type: cell-based; details: read-out: Germistatic Concentration of MBP
Protocol: as §6

Staphylococcus aureus = assay: Antimicrobial activity of MBP on nutrient agar, Staphylococcus aureus; type: cell-based; details: read-out: Germistatic Concentration of MBP
Protocol: as §6

fungal growth = assay: Visual fungal growth rating on treated crops in ventilated cans; design: key: 1 = no growth, 10 = heavy uniform growth; details: 1-10 basis
Protocol: Methylene bispropionate was applied to a variety of crops at various dosages by spraying or in a mixer. Two ventilated cans were filled with each treated crop. The cans were then maintained at 70° F. ±5° F. Each can was periodically visually observed for fungal growth and the observations were translated into a growth rating on a 1-10 basis; 1 indicating no growth and 10 indicating heavy uniform growth. For comparison, two samples of each untreated crop were also tested. The crops employed, the percent weight methylene bispropionate (MBP) based on weight crop, and the fungal rating 2, 7-8 and 28-29 days after treatment are tabulated in Table III.

[4] = test system: Trichophyton interdigitale; assay: Antimicrobial activity of MBP on nutrient agar, Trichophyton interdigitale; type: cell-based; details: read-out: Germistatic Concentration of MBP
Protocol: as §6

Pseudomonas aeruginosa = assay: Antimicrobial activity of MBP on nutrient agar, Pseudomonas aeruginosa; type: cell-based; details: read-out: Germistatic Concentration of MBP
Protocol: as §6

high moisture corn = assay: Preservation of high moisture corn in ventilated cans (time until temperature exceeds room temperature); details: for Weeks Effective: corn 25 percent moisture, 70-72 F
Protocol: High moisture corn (25 percent moisture) was treated with various methylene and polyoxymethylene esters of propionic or acetic acid of various dosages. The esters were applied to the corn in a mixer for one minute at 32 RPM. Three replicate two gallon ventilated cans were filled with the treated corn. The cans were then held at a temperature of 70°-72° F. Temperature readings were taken semi-weekly by means of thermocouples in the center of each can. When the temperature exceeded constant room temperature for at least an 8-hour period the treatment was considered broken.

Candida albicans = assay: Antimicrobial activity of MBP on nutrient agar, Candida albicans; type: cell-based; details: read-out: Germistatic Concentration of MBP
Protocol: as §6

[5] = Acute oral toxicity in white rats; details: rat, in vivo
From the text: Methylene bispropionate was subjected to acute oral toxicity studies using white rats.

Bacillus subtilis = assay: Antimicrobial activity of MBP on nutrient agar, Bacillus subtilis; type: cell-based; details: read-out: Germistatic Concentration of MBP
Protocol: as §6

Escherichia coli = assay: Antimicrobial activity of MBP on nutrient agar, Escherichia coli; type: cell-based; details: read-out: Germistatic Concentration of MBP
Protocol: as §6

CCC(=O)OC(OC(=O)CC)C(Cl)(Cl)Cl [2,2,2-Trichloroethylidene Bispropionate]
% Control All Species (All Species; 1.0 Oz./100 Lbs.): 8% | % Control All Species (All Species; 2.5 Oz./100 Lbs.): 54% | % Control All Species (All Species; 6.4 Oz./100 Lbs.): 74% | % Control All Species (All Species; 18 Oz./100 Lbs.): 89%

CC(=O)OC(C)OC(C)=O [Ethylidene Bisacetate]
% Control All Species (All Species; 1.0 Oz./100 Lbs.): 60% | % Control All Species (All Species; 2.5 Oz./100 Lbs.): 87% | % Control All Species (All Species; 6.4 Oz./100 Lbs.): 93% | % Control All Species (All Species; 16 Oz./100 Lbs.): 100%

CCCC(=O)OCOCOC(=O)CCC [Oxybismethylene Bisbutyrate]
Conc. for 90% Control, Rhizopus sp. (Rhizopus sp.): 1.1 oz./100 lbs. | % Control All Species (All Species; 1.0 Oz./100 Lbs.): 100% | % Control All Species (All Species; 2.5 Oz./100 Lbs.): 100% | % Control All Species (All Species; 6.4 Oz./100 Lbs.): 100% | % Control All Species (All Species; 16 Oz./100 Lbs.): 100% | Conc. for 90% Control, Aspergillus niger (Aspergillus niger [1]): 0.57 oz./100 lbs. | Conc. for 90% Control, Fusarium sp. (Fusarium sp.): 1.0 oz./100 lbs.

CCOC(=O)CC(SP(=S)(OC)OC)C(=O)OCC (stereo not drawn) [Malathion, S-[1,2-bis(ethoxycarbonyl)ethyl]-O,O-dimethyl phosphorodithioate]
miscibility with methylene bispropionate (in words) [2]: miscible with methylene bispropionate in all proportions

CCC(=O)OCOC(=O)CC [Methylene Bispropionate]
Conc. for 90% Control, Rhizopus sp. (Rhizopus sp.): 0.85 oz./100 lbs. | MIC (Aspergillus niger [3]): 800 µg/mL (≈ 4.99 mM) | MIC (Streptococcus pyogenes): 700 µg/mL (≈ 4.37 mM) | MIC (Staphylococcus aureus): 1000 µg/mL (≈ 6.24 mM) | Fungal Rating (fungal growth; Hay (4" seedlings), […] Wt MBP, 7-8 days): 0 | Fungal Rating (fungal growth; Hay (4" seedlings), […] Wt MBP, 28-29 days): 4 | Fungal Rating (fungal growth; Hay (4" seedlings), […] Wt MBP, 2 days): 0 | Fungal Rating (fungal growth; Sorghum (33% H2 O), 0.51 % Wt MBP, 7-8 days): 0 | Fungal Rating (fungal growth; Sorghum (33% H2 O), 0.51 % Wt MBP, 28-29 days): 0 | Fungal Rating (fungal growth; Sorghum (33% H2 O), 0.51 % Wt MBP, 2 days): 0 | Fungal Rating (fungal growth; Soybeans (26% H2 O), 0.51 % Wt MBP, 7-8 days): 0 | Fungal Rating (fungal growth; Soybeans (26% H2 O), 0.51 % Wt MBP, 28-29 days): 0 | Fungal Rating (fungal growth; Soybeans (26% H2 O), 0.51 % Wt MBP, 2 days): 0 | Fungal Rating (fungal growth; Wheat (26% H2 O), 0.6 % Wt MBP, 7-8 days): 0 | Fungal Rating (fungal growth; Wheat (26% H2 O), 0.6 % Wt MBP, 28-29 days): 0 | Fungal Rating (fungal growth; Wheat (26% H2 O), 0.6 % Wt MBP, 2 days): 0 | Fungal Rating (fungal growth; Wood Chips (freshly cut), 1.4 % Wt MBP, 7-8 days): 0 | Fungal Rating (fungal growth; Wood Chips (freshly cut), 1.4 % Wt MBP, 28-29 days): 0 | Fungal Rating (fungal growth; Wood Chips (freshly cut), 1.4 % Wt MBP, 2 days): 0 | MIC [4]: 800 µg/mL (≈ 4.99 mM) | MIC (Pseudomonas aeruginosa): 7000 µg/mL (≈ 43.7 mM) | Weeks Effective (high moisture corn; 3 Oz/Bu): > 12 Weeks | Weeks Effective (high moisture corn; 6 Oz/Bu): > 12 Weeks | effectiveness in preservation of high moisture corn (in words) (high moisture corn; from Table II): remarkably superior to propionic acid in the preservation of high moisture corn | MIC (Candida albicans): 1000 µg/mL (≈ 6.24 mM) | % Control All Species (All Species; 1.0 Oz./100 Lbs.): 97% | % Control All Species (All Species; 2.5 Oz./100 Lbs.): 100% | % Control All Species (All Species; 6.4 Oz./100 Lbs.): 100% | % Control All Species (All Species; 16 Oz./100 Lbs.): 100% | inhibition of growth at 0.16 oz/100 lb (Aspergillus niger [1]; Aspergillus niger, 336 h, 0.16 oz./100 lbs.): 99% | Conc. for 90% Control, Aspergillus niger (Aspergillus niger [1]): 0.16 oz./100 lbs. | LD50 [5]: 2800 mg/kg | MIC (Bacillus subtilis): 8000 µg/mL (≈ 49.9 mM) | MIC (Escherichia coli): 6000 µg/mL (≈ 37.5 mM) | Conc. for 90% Control, Fusarium sp. (Fusarium sp.): 0.5 oz./100 lbs.

CC(C)C(=O)OCOC(=O)C(C)C [Methylene Bisisobutyrate]
Conc. for 90% Control, Rhizopus sp. (Rhizopus sp.): 3.2 oz./100 lbs. | % Control All Species (All Species; 1.0 Oz./100 Lbs.): 98% | % Control All Species (All Species; 2.5 Oz./100 Lbs.): 99% | % Control All Species (All Species; 6.4 Oz./100 Lbs.): 100% | % Control All Species (All Species; 16 Oz./100 Lbs.): 98% | Conc. for 90% Control, Aspergillus niger (Aspergillus niger [1]): * (No Control at 2.5 oz./100 lbs.) | Conc. for 90% Control, Fusarium sp. (Fusarium sp.): 2.0 oz./100 lbs.

CCC(=O)OC(OC(=O)CC)c1ccccc1 [Benzylidene Bispropionate]
% Control All Species (All Species; 1.0 Oz./100 Lbs.): 46% | % Control All Species (All Species; 2.5 Oz./100 Lbs.): 54% | % Control All Species (All Species; 6.4 Oz./100 Lbs.): 79% | % Control All Species (All Species; 16 Oz./100 Lbs.): 91%

CCOP(=S)(OCC)Oc1ccc([N+](=O)[O-])cc1 [parathion, O,O-diethyl-O-p-nitrophenyl phosphorothioate]
miscibility with methylene bispropionate (in words) [2]: miscible with methylene bispropionate in all proportions
